Six molecules from the supplement of paper PMC5752671 can be followed below.

Counter-ions that a name gives are not always drawn.

Holding throughout (conditions): 4 days
Experiment [1] concerns MV4.11. Description: area under dose-response curve (cell viability) (AUC (arbitrary, % viability x log concentration)); higher = less sensitive (more viable). A digest of the protocol: (§1)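 Drugs were dispensed robotically, one day after plating, onto fourteen leukemia cell lines in 384-well plates coated with extracellular matrix. Each drug was tested in duplicate at eight concentrations spanning 4–5 logs inside 10^–12–10^–4 M, adjusted per drug, and CellTiter-Glo readout followed after 4 days. Duplicates were averaged and a four-parameter sigmoid was fitted. The area under that fitted curve is the reported value.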

In experiment [2] the test system is HL60. The experiment is described as above. Put shortly:
as §1

The test system of experiment [3] is PL-21. The experiment is described as above. Put shortly: as §1
Experiment [4] has as its system THP-1. The experiment is described as above. A digest of the protocol: as §1
Experiment [5] has as its system KASUMI1. The description is as above. Put shortly:
as §1

Experiment [6] concerns MOLM/13. Described as above. Put shortly:
as §1

In experiment [7] the test system is MV4.11. Description: IC50 (cell viability) (log10 M). A digest of the protocol: (§2)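 Drugs were dispensed robotically in duplicate onto fourteen leukemia cell lines plated a day earlier on 384-well plates with an extracellular matrix coating, at eight concentrations covering 4–5 logs inside the 10^–12–10^–4 M range, set for each drug. CellTiter-Glo was used to read viability after 4 days. Each IC50 in the table comes from a fitted curve. It is given as the concentration in log10 M where a four-parameter curve crosses 50% viability, or as the highest tested concentration when the curve never reaches that level.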

The subject of the next experiment is SKM1. As to the kind of experiment: IC50 (cell viability) (log10 M). A digest of the protocol:
as §2

Another experiment concerns EOL-1. Description: IC50 (cell viability) (log10 M). Put shortly:
as §2

Another experiment has as its system OCI-AML3. Description: IC50 (cell viability) (log10 M). Put shortly: as §2
A further experiment relates to OCI-AML2. Description: IC50 (cell viability) (log10 M). Put shortly: as §2
The subject of a further experiment is U937. Description: IC50 (cell viability) (log10 M). Put shortly: as §2
In another experiment the test system is MOLM/16. As to the kind of experiment: IC50 (cell viability) (log10 M). Put shortly:
as §2

In another experiment the test system is NB4. As to the kind of experiment: IC50 (cell viability) (log10 M). Put shortly:
as §2

Experiment [8] deals with HL60. As to the kind of experiment: IC50 (cell viability) (log10 M). A digest of the protocol: as §2
For experiment [9], the system named is PL-21. Description: IC50 (cell viability) (log10 M). Put shortly:
as §2

For experiment [10], the system named is THP-1. As to the kind of experiment: IC50 (cell viability) (log10 M). Put shortly:
as §2

In experiment [11] the test system is KASUMI1. As to the kind of experiment: IC50 (cell viability) (log10 M). A digest of the protocol:
as §2

Experiment [12] deals with MOLM/13. As to the kind of experiment: IC50 (cell viability) (log10 M). A digest of the protocol:
as §2

The test system of another experiment is KG1. Description: IC50 (cell viability) (log10 M). Put shortly: as §2

Regarding `Nc1ccn([C@@H]2O[C@H](CO)[C@@H](O)C2(F)F)c(=O)n1` [Gemcitabine HCl], the “area under dose-response curve” value worked out at 2 with MV4.11 [1]; 71.4 in the experiment with HL60 [2]; 201 in the experiment with PL-21 [3]; 17.2 in the experiment on THP-1 [4]; 119 with KASUMI1 [5]; 3.55 with MOLM/13 [6]. Further, the “IC50 (log10 M)” value in the experiment on MV4.11 [7], in the experiment with SKM1, with EOL-1, with OCI-AML3, with OCI-AML2 and with U937 was under -8.48 throughout. Also, the “IC50 (log10 M)” value with MOLM/16, in the experiment with NB4, in the experiment on HL60 [8], in the experiment on PL-21 [9], with THP-1 [10] and in the experiment with KASUMI1 [11] was under -8.48 each time. Besides, the “IC50 (log10 M)” value with MOLM/13 [12] and in the experiment with KG1 was under -8.48 in each case.

On to `NC(=O)NO` [Hydroxyurea], for which the “area under dose-response curve” value turned out to be 602 with MV4.11 [1]; 645 with HL60 [2]; 584 in the experiment on PL-21 [3]; 675 with THP-1 [4]; 672 in the experiment with KASUMI1 [5]; 602 with MOLM/13 [6]. Further, the “IC50 (log10 M)” value with MV4.11 [7], in the experiment on SKM1, in the experiment with EOL-1, with OCI-AML3, in the experiment with OCI-AML2 and with U937 was over -5 throughout. For the same molecule, the “IC50 (log10 M)” value in the experiment on MOLM/16, with NB4, with HL60 [8], with PL-21 [9], in the experiment on THP-1 [10] and in the experiment with KASUMI1 [11] was over -5 throughout. In addition, the “IC50 (log10 M)” value with MOLM/13 [12] and with KG1 was over -5 each time.

With `CCc1c2c(nc3ccc(OC(=O)N4CCC(N5CCCCC5)CC4)cc13)-c1cc3c(c(=O)n1C2)COC(=O)[C@]3(O)CC` [Irinotecan HCl], the “area under dose-response curve” value stood at 499 in the experiment on MV4.11 [1]; 625 in the experiment on HL60 [2]; 564 with PL-21 [3]; 627 in the experiment on THP-1 [4]; 618 with KASUMI1 [5]; 498 with MOLM/13 [6]. For the same molecule, the “IC50 (log10 M)” value in the experiment on MV4.11 [7] was -6.08; in the experiment on SKM1, -5.41; with EOL-1, -6.09; with OCI-AML3, -5.49; in the experiment on OCI-AML2, -5.55; with U937, -5.47. For the same molecule, the “IC50 (log10 M)” value is -5.71 with MOLM/16; -5.8 in the experiment with NB4; -5.05 in the experiment on HL60 [8]; -5.44 in the experiment with PL-21 [9]; -5.37 with THP-1 [10]; -5.07 in the experiment with KASUMI1 [11]. The entries for the “IC50 (log10 M)” value with MOLM/13 [12] and with KG1 were -5.77 and -5.43, respectively.

For the molecule `CS(=O)(=O)CCNCc1ccc(-c2ccc3ncnc(Nc4ccc(OCc5cccc(F)c5)c(Cl)c4)c3c2)o1` [Lapatinib], the “area under dose-response curve” value with MV4.11 [1] came out at 630; in the experiment with HL60 [2], 747; in the experiment on PL-21 [3], 579; in the experiment with THP-1 [4] it was 706; with KASUMI1 [5], 703; with MOLM/13 [6] it was 649. Also, the “IC50 (log10 M)” value with MV4.11 [7] was -5.4; in the experiment with SKM1, -5.07; in the experiment with EOL-1, -5.04; with OCI-AML3, -5.42; in the experiment with OCI-AML2 it was -5.37; in the experiment on U937, -5.45. Also, the “IC50 (log10 M)” value is -5.45 in the experiment with MOLM/16; -5.37 with NB4; -5.05 in the experiment with HL60 [8]; -5.4 in the experiment on PL-21 [9]; -5.01 in the experiment with THP-1 [10]; -5.15 with KASUMI1 [11]. In addition, the “IC50 (log10 M)” value with MOLM/13 [12] was -5.41; with KG1, -5.01.

Regarding `Nc1cccc2c1CN(C1CCC(=O)NC1=O)C2=O` (stereo not given) [Lenalidomide], the “area under dose-response curve” value was found to be 671 in the experiment on MV4.11 [1]; 745 in the experiment with HL60 [2]; 621 in the experiment with PL-21 [3]; 719 with THP-1 [4]; 739 in the experiment on KASUMI1 [5]; 599 in the experiment on MOLM/13 [6]. The “IC50 (log10 M)” value in the experiment on MV4.11 [7], in the experiment with SKM1, in the experiment on EOL-1, with OCI-AML3, in the experiment with OCI-AML2 and with U937 was over -5 throughout. Besides, the “IC50 (log10 M)” value in the experiment on MOLM/16, in the experiment with NB4, in the experiment on HL60 [8], in the experiment with PL-21 [9], in the experiment with THP-1 [10] and in the experiment with KASUMI1 [11] was over -5 throughout. Also, the “IC50 (log10 M)” value in the experiment on MOLM/13 [12] and with KG1 was over -5 throughout.

For the molecule `COc1cc(Nc2ncc3c(n2)-c2ccc(Cl)cc2C(c2c(F)cccc2OC)=NC3)ccc1C(=O)O` [MLN8237], the “area under dose-response curve” value was found to be 279 in the experiment with MV4.11 [1]; 467 with HL60 [2]; 406 in the experiment with PL-21 [3]; 195 in the experiment with THP-1 [4]; 452 in the experiment on KASUMI1 [5]; 306 in the experiment with MOLM/13 [6]. The “IC50 (log10 M)” value was -7.92 in the experiment on MV4.11 [7]; over -5 in the experiment on SKM1; under -8.48 in the experiment with EOL-1; -7.95 in the experiment with OCI-AML3; -7.51 in the experiment with OCI-AML2; under -8.48 in the experiment with U937. In addition, the “IC50 (log10 M)” value in the experiment on MOLM/16 was under -8.48; in the experiment on NB4, -8.21; in the experiment with HL60 [8], over -5; in the experiment on PL-21 [9], -7.95; with THP-1 [10], under -8.48; in the experiment on KASUMI1 [11], -7.53. Also, the “IC50 (log10 M)” value in the experiment on MOLM/13 [12] is -7.95; with KG1, -7.99.
